Patent publication US20240050441A1, “COMBINATION THERAPIES FOR THE TREATMENT OF CANCER” (Erasca, Inc., priority 2020, published 2024)
“Also recorded” adds a separate entry of the source.

What was measured:
Assay type in all cases: cell-based
CAL 27 cells = assay: Cellular proliferation assay (CellTiter-Glo, day 5); details: Homo sapiens, read-out: The compound of Formula I IC50, compound of Formula I alone
Method: (§1) The cell lines used in the study were obtained from ATCC (CAL 27 #CRL-2095, SCC-15 #CRL-1623, SCC-25 #CRL-1628, SCC-4 #CRL-1624 and SCC-9 #CRL-1629). The cell line, CAL 27 was cultured in DMEM (Gib co #). SCC-4, SCC-15, SCC-25, SCC-9 cell lines was cultured in a 1:1 mixture of DMEM and Ham's F12 medium containing 1.2 g/L sodium bicarbonate, 2.5 mM L-glutamine, 15 mM HEPES and 0.5 mM sodium pyruvate supplemented with 400 ng/ml hydrocortisone, 90%; fetal bovine serum, 10% (Hyclone #SH-30071.03) and Penicillin/Streptomycin (Thermo Fisher #15070-063). The cells were maintained at 37° C./5% CO2. Cells were washed in ice cold PBS (Thermo Fisher Scientific #10010-023) and lysed in RIPA Lysis and Extraction Buffer (Thermo Fisher Scientific #89900) supplemented with Halt Phosphatase and Protease Inhibitor (Thermo Fisher Scientific #78445). The membrane was blocked for non-specific proteins by Bovine Serum Albumin BSA (Cell Signaling Tech #9998). Antibodies for immunoblotting were as follows: phospho-p44/42 ERK1/2 (Cell Signaling Tech #4370), ERK2 antibody (Santa Cruz #sc-1647), anti-mouse IgG HRP-linked antibody (Cell Signaling Tech #7076), and anti-rabbit IgG HRP-linked antibody (Cell Signaling Tech #7074).
(§2) […] HPV-negative head and neck squamous cancer cell lines, CAL 27, SCC-4, SCC-9, SCC-15 and SCC-25 were split onto 96 well plates.

SCC-9 cells = assay: as above; details: Homo sapiens, read-out: The compound of Formula I IC50, compound of Formula I alone
Method: as §1, §2

SCC-15 cells = assay: as above; details: Homo sapiens, read-out: The compound of Formula I IC50, compound of Formula I alone
Method: as §1, §2

SCC-25 cells = assay: as above; details: read-out: The compound of Formula I IC50, compound of Formula I alone
Method: as §1, §2

ERK1/2 phosphorylation = assay: Western blotting of phosphorylated ERK1/2 in CAL 27 cells; details: HPV-negative CAL 27 cells; 4 hours of treatment; immunoblot, bands normalized by total ERK
Method: as §1, with “The membrane was blocked for non-specific proteins by Bovine Serum Albumin BSA (Cell Signaling Tech #9998). Antibodies for immunoblotting were as follows: phospho-p44/42 ERK1/2 (Cell Signaling Tech #4370), ERK2 antibody (Santa Cruz #sc-1647), anti-mouse IgG HRP-linked antibody (Cell Signaling Tech #7076), and anti-rabbit IgG HRP-linked antibody (Cell Signaling Tech #7074).” left out
Western blotting: Cells were lysed on ice for 10 minutes with Thermo Fisher RIPA lysis buffer with protease and phosphatase inhibitors. […] The supernatant was transferred to pre-chilled microcentrifuge tube and protein concentration of the lysate was measured using BCA method. […]
After 4 hours of treatment, cells were lysed and immunoblotted for phosphorylated ERK1/2. […] The phosphorylated ERK1/2 bands were quantified by using Bio-Rad Image Lab software and normalized by total ERK.

COCOC[C@H]1C[C@H]2COc3c(Sc4cnc(N5CCC6(CC5)CO[C@@H](C)[C@H]6N)c(CO)n4)ccnc3N2C1 [The compound of Formula I]
IC50 (CAL 27 cells): 112 nM
IC50 (SCC-9 cells): 161 nM
IC50 (SCC-15 cells): 1410 nM
IC50 (SCC-25 cells): 8050 nM
inhibition of ERK1/2 phosphorylation relative to DMSO treated control cells (ERK1/2 phosphorylation): approximately 50%; also recorded: about 50%
